{
  "source": "patent US10435333B2",
  "about": "“High temperature amine-stabilized DCD and/or alkyl thiophosphoric triamide solvent systems and use in agricultural applications” (RHODIA OPERATIONS, priority 2015, dated 2019)",
  "key": {"[1]": {"details": "cited from earlier work"}, "[2]": {"experiment": "degradation of NBPT at high temperature (colour change, sludge/precipitate)", "type": "physicochemical", "procedure": "Another problem is that certain nitrification inhibitors and/or urease inhibitors degrade at high temperatures. […] Often times temperatures in agricultural fields (e.g., corn fields, wheat fields, etc.) reach in excess of 35° C. and sometimes can reach up to 45° C. or higher. For example, at 45° C. […] Thus, it is also desirable to have solvent systems containing nitrification inhibitors and/or urease inhibitors that are stabilized at high temperatures, such as those unitized in hot climates or weather. This invention addresses the addition of stabilizers to prolong the chemical and physical stability of formulated liquid agricultural compositions containing (i) one or more nitrification inhibitors, (ii) one or more urease inhibitors or (iii) a combination of both (i) and (ii). In one embodiment, the urease inhibitor is NBPT."}, "[3]": {"experiment": "visual physical stability of NBPT/DMSO formulation with 2 wt % amine stabilizer at high temperature (FIG. 1)", "type": "physicochemical", "details": "2 wt % amine stabilizer in NBPT/DMSO formulation, greater than 45° C.", "procedure": "FIG. 1 is a photograph of Several amines or amides were tested to check if they can stabilize NBPT degradation at high temperatures (at greater than 45° C.) in NBPT/DMSO formulation. Each sample was prepared with 2% of amine stabilizer added.\nReferring to FIG. 1, Several amines or amides were tested to check if they can stabilize NBPT degradation at high temperatures (at greater than 45° C.) in NBPT/DMSO formulation. Each sample was prepared with 2 wt % of amine stabilizer added."}},
  "data": [
    {"smiles": "N#CNC(=N)N", "note": "[Dicyandiamide, 2-cyanoguanidine]", "values": [
      {"measurement": "solubility in water", "setting": "[1]", "result": "about 41 g/l"}
    ]},
    {"smiles": "CCCCNP(N)(N)=S", "note": "[NBPT, N-(n-butyl)-thiophosphoric triamide]", "values": [
      {"measurement": "appearance after exposure to high heat", "setting": "[2]; 45° C., NBPT formulated in different solvents, days to weeks", "result": "changes color in days from colorless to a darker green/brown, followed by sludge/precipitate formation after weeks"},
      {"measurement": "degradation at higher temperature", "setting": "[2]; typically above 45° C.", "result": "degrades rapidly"}
    ]},
    {"smiles": "NCCO", "note": "[monoethanolamine]", "values": [
      {"measurement": "physical stability by visual observation (appearance)", "setting": "[3]", "result": "better physical stability (less dark appearance)"}
    ]}
  ]
}
